Key:
CEBiP gene expression = test: Effect of elicitor on CEBiP expression in cultured cells (FIG. 10); type: cell-based, rice
CEBiP-RNAi rice cells = test: Reactive oxygen production due to elicitors in CEBiP-RNAi cultured rice cells; type: cell-based, Oryza sativa L. cv. Nipponbare; settings: (GlcNH2)7 2 μg/mL
Protocol: (§1) Reactive oxygen production due to sugar elicitor treatment in NT and CEBiP-RNAi cultured rice cells was analyzed as follows: NT rice calli and CEBiP-RNAi rice calli were placed into 100 mL Erlenmeyer flasks containing 30 mL of N6 medium. After culturing at 27° C. for one week, the cells were strained, 0.6 mL of cells were transferred to 30 mL of fresh medium and cultured for another four days. 60 mg or 100 mg of each of the cultured cells were placed into a 2 mL tube, 1 mL of fresh N6 medium was added, and the cells were cultured overnight. (GlcNAc)8 (100 ng/mL), Pseudomonas aeruginosa-derived lipopolysaccharide (LPS, 50 μg/mL, Sigma), and (GlcNH2)7 (2 μg/mL) were used as elicitors. An elicitor was added to NT and CEBiP-RNAi cultured rice cells, treatment was carried out for 30 minutes or two hours, then 25 μL of the medium solution was sampled for reactive oxygen measurements. As a control, a same amount of distilled water (DW) was added, and similar treatments were carried out. Reactive oxygen was measured by adding 25 μL of the reacted solution, 400 μL of 50 mM potassium phosphate buffer (PK, pH 7.9), 25 μL of 1.1 mM luminol, and 50 μL of 14 mM potassium ferricyanide to a tube, mixing, then immediately measuring chemiluminescence counts for ten seconds in a luminometer (Turner Design TD-20/20, Sunnyvale, Calif.).

NT rice cells = test: Reactive oxygen production due to elicitors in NT cultured rice cells; type: cell-based, Oryza sativa L. cv. Nipponbare; settings: (GlcNAc)8 100 ng/mL; FIG. 16
Protocol: as §1

CEBiP-RNAi #6 rice cells = test: Microarray analysis of elicitor-responsive genes, CEBiP-RNAi #6 cultured rice cells; type: cell-based
Excerpt: (§2) An oligoarray (Agilent) produced from a rice full-length cDNA database was used for the microarray analyses. For the preparation of Cyanine 3 (Cy3)- and Cyanine 5(Cy5)-labeled cRNAs, RNAs isolated from each of the cultured cells of NT and two kinds of CEBiP-RNAi cultured rice cells treated with (GlcNAc)8 for two hours ((GlcNAc)8-NT, (GlcNAc)8-CEBiP-RNAi #3, and (GlcNAc)8-CEBiP-RNAi #6) as well as of cultured cells treated with water as controls were used. Methods for Cy3- and Cy5-labeling and methods for hybridizing the Cy3- and Cy5-labeled samples with slide glasses onto which 22K rice oligoprobes have been attached were carried out according to the protocol from Agilent. The combinations of hybridization reagents that were used were Cy5-labeled (GlcNAc)8-NT/Cy3-labeled NT; [2] Cy5-labeled (GlcNAc)8-CEBiP-RNAi #3/Cy3-labeled CEBiP-RNAi #3; and [3] Cy5-labeled (GlcNAc)8-CEBiP-RNAi #6/Cy3-labeled CEBiP-RNAi #6. Furthermore, experiments in which the labeling reagents were swapped (the labeled forms were interchanged) were also performed. The obtained results were analyzed at http://tos.nias.affrc.go.jp/cgi-bin/tos17/array.cgi.

rice protoplasts = test: Reactive oxygen production in rice protoplasts, luminol method; type: cell-based, Oryza sativa L. cv. Nipponbare; settings: 1 μL of 100 μg/mL (GlcNAc)8, 15 minutes
Protocol: Protoplasts were prepared from cultured rice cells, and the effect of the anti-Con A-CEBiP antibodies on elicitor-responsive reactive oxygen production was examined.
Cultured rice cells were strained through a metal mesh. Four days later, these cells were placed into 14 mL of 0.1% CaCl2, 0.02% MES, 9% Mannitol solution (pH 5.6) containing 2% Cellurase RS (Yakult) and 0.05% Pectolyase Y-23, and then gently shaken at 30° C. for six hours. Cells were filtered through a 25 μm nylon mesh, and the cells on the mesh were washed with 20 mL of Washing buffer (0.1% CaCl2/0.4 M Mannitol) (Nishimura, N., Tanabe, S., He, D.-Y, Yokota, T., Shibuya, N. and Minami, E. Plant Physiol. Biochem., 39, 1105-1110 (2001)). The protoplasts were collected into a 50 mL Falcon tube and recovered by centrifugation at 600 rpm for five minutes. […]
25 μL of the reacted solution, 400 μL of 50 mM potassium phosphate buffer (pH 7.9), 25 μL of 1.1 mM luminol, and 50 μL of 14 mM potassium ferricyanide were stirred in a tube, and immediately thereafter, a chemiluminescence count was measured for ten seconds using a luminometer (Turner Designs TD-20/20, Sunnyvale, Calif.). H2O2 concentration was calculated by producing a standard curve after measuring the luminescence by a commercially available H2O2 solution (aqueous 30% H2O2 solution, Wako Pure Chemical Industry).

NT cultured rice cells = test: Microarray analysis of elicitor-responsive genes, NT cultured rice cells; type: cell-based
Excerpt: as §2

[1] = (GlcNAc)8-CEBiP-RNAi #6/CEBiP-RNAi #6 area, two hours
[2] = (GlcNAc)8 two hours vs water, CEBiP-RNAi #6 cells
[3] = CEBiP-RNAi #6 cells vs non-transformant
[4] = (GlcNAc)8-NT/NT area, two hours
[5] = (GlcNAc)8 two hours vs water, NT cultured rice cells

CC(=O)N[C@H]1[C@H](O[C@H]2[C@H](O)[C@@H](NC(C)=O)[C@H](O[C@H]3[C@H](O)[C@@H](NC(C)=O)[C@H](O[C@H]4[C@H](O)[C@@H](NC(C)=O)C(O)O[C@@H]4CO)O[C@@H]3CO)O[C@@H]2CO)O[C@H](CO)[C@@H](O[C@@H]2O[C@H](CO)[C@@H](O[C@@H]3O[C@H](CO)[C@@H](O[C@@H]4O[C@H](CO)[C@@H](O)[C@H](O)[C@H]4NC(C)=O)[C@H](O)[C@H]3NC(C)=O)[C@H](O)[C@H]2NC(C)=O)[C@@H]1O (stereo partly shown) [chitin oligosaccharide elicitor]
induction of expression of the target gene (CEBiP) (CEBiP gene expression): induce expression

N[C@H]1[C@H](O[C@H]2[C@H](O)[C@@H](N)[C@H](O[C@H]3[C@H](O)[C@@H](N)[C@H](O[C@H]4[C@H](O)[C@@H](N)[C@H](O[C@H]5[C@H](O)[C@@H](N)[C@H](O[C@H]6[C@H](O)[C@@H](N)[C@H](O[C@H]7[C@H](O)[C@@H](N)C(O)O[C@@H]7CO)O[C@@H]6CO)O[C@@H]5CO)O[C@@H]4CO)O[C@@H]3CO)O[C@@H]2CO)O[C@H](CO)[C@@H](O)[C@@H]1O (stereo partly shown) [(GlcNH2)7]
reactive oxygen responsiveness in both CEBiP-RNAi lines (CEBiP-RNAi rice cells): Non-responsiveness

CC(=O)N[C@H]1[C@H](O[C@H]2[C@H](O)[C@@H](NC(C)=O)[C@H](O[C@H]3[C@H](O)[C@@H](NC(C)=O)[C@H](O[C@H]4[C@H](O)[C@@H](NC(C)=O)C(O)O[C@@H]4CO)O[C@@H]3CO)O[C@@H]2CO)O[C@H](CO)[C@@H](O[C@@H]2O[C@H](CO)[C@@H](O[C@@H]3O[C@H](CO)[C@@H](O[C@@H]4O[C@H](CO)[C@@H](O[C@@H]5O[C@H](CO)[C@@H](O)[C@H](O)[C@H]5NC(C)=O)[C@H](O)[C@H]4NC(C)=O)[C@H](O)[C@H]3NC(C)=O)[C@H](O)[C@H]2NC(C)=O)[C@@H]1O (stereo partly shown) [(GlcNAc)8]
production of reactive oxygen in NT rice cells, LPS treatment in NT defined as 100% (NT rice cells): approximately 86.3%
number of genes whose expression level decreased (CEBiP-RNAi #6 rice cells; [1]): 90 genes
number of genes whose expression level increased (CEBiP-RNAi #6 rice cells; [1]): 361 genes
FOLD INCREASE RNAi #6 AK058891 β-1.3 glucanase (CEBiP-RNAi #6 rice cells; [2]): 11.4 fold
FOLD INCREASE RNAi #6 AK060582 Replication protein A1(Os-RPA1) (CEBiP-RNAi #6 rice cells; [2]): 2.8 fold
FOLD INCREASE RNAi #6 AK060834 Calreticulin (CEBiP-RNAi #6 rice cells; [2]): 14.2 fold
FOLD INCREASE RNAi #6 AK065812 Zea mays NADPH HC toxin reductase (CEBiP-RNAi #6 rice cells; [2]): 16.0 fold
FOLD INCREASE RNAi #6 AK066784 Small GTP-binding protein (rab5A) (CEBiP-RNAi #6 rice cells; [2]): 2.5 fold
FOLD INCREASE RNAi #6 AK067690 NAC Transcription factor (CEBiP-RNAi #6 rice cells; [2]): 3.4 fold
FOLD INCREASE RNAi #6 AK068115 Harpin induced protein (CEBiP-RNAi #6 rice cells; [2]): 10.1 fold
FOLD INCREASE RNAi #6 AK068993 PAL (CEBiP-RNAi #6 rice cells; [2]): 2.9 fold
FOLD INCREASE RNAi #6 AK072235 Cysteine proteinase (CEBiP-RNAi #6 rice cells; [2]): 5.5 fold
FOLD INCREASE RNAi #6 AK100959 beta-Expansin(EXPB3) (CEBiP-RNAi #6 rice cells; [2]): 5.4 fold
FOLD INCREASE RNAi #6 AK102192 β-Galactosidase (CEBiP-RNAi #6 rice cells; [2]): 2.8 fold
FOLD INCREASE RNAi #6 AK103094 Laccase (CEBiP-RNAi #6 rice cells; [2]): 2.1 fold
FOLD INCREASE RNAi #6 AK103707 Ribosome inactivating protein 2 (CEBiP-RNAi #6 rice cells; [2]): 27.8 fold
genes of the 746 increased in NT showing a suppression of two times or more (CEBiP-RNAi #6 rice cells; [3]): 45 genes
genes of the 746 increased in NT showing suppression of two times or more or loss of elicitor responsiveness (CEBiP-RNAi #6 rice cells; [3]): 530 genes
share of the 746 increased genes showing suppression of two times or more or loss of elicitor responsiveness (CEBiP-RNAi #6 rice cells; [3]): 71%
genes of the 361 increased in CEBiP-RNAi #6 with increased expression levels compared to NT cells (CEBiP-RNAi #6 rice cells; elicitor treatment): one hundred
genes whose expression level decreased with equivalent response in non-transformant and CEBiP-RNAi #6 rice cells (CEBiP-RNAi #6 rice cells; elicitor treatment): 44 genes
genes whose expression level increased with equivalent response in non-transformant and CEBiP-RNAi #6 rice cells (CEBiP-RNAi #6 rice cells; elicitor treatment): 216 genes
share of the 361 increased genes with increased expression levels compared to NT cells (CEBiP-RNAi #6 rice cells; elicitor treatment): approximately 28%
genes decreased in NT showing suppression of two times or more or a loss in CEBiP-RNAi #6 (CEBiP-RNAi #6 rice cells; vs non-transformants): 176 genes
share of genes decreased in NT showing suppression of two times or more or a loss in CEBiP-RNAi #6 (CEBiP-RNAi #6 rice cells; vs non-transformants): 80%
production of reactive oxygen increase compared to the control (rice protoplasts): 1.7 times
number of genes whose expression level decreased (NT cultured rice cells; [4]): 220 genes
number of genes whose expression level increased (NT cultured rice cells; [4]): 746 genes
FOLD INCREASE NT* AK058296 1-aminocyclopropane-1-carboxylate oxidase (NT cultured rice cells; [5]): 6.6 fold
FOLD INCREASE NT* AK058891 β-1.3 glucanase (NT cultured rice cells; [5]): 4.1 fold
FOLD INCREASE NT* AK060423 Alanine:glyoxylate aminotransferase like protein (NT cultured rice cells; [5]): 11.2 fold
FOLD INCREASE NT* AK060582 Replication protein A1(Os-RPA1) (NT cultured rice cells; [5]): 4.6 fold
FOLD INCREASE NT* AK060625 GDSL-motif lipase/hydrolase (NT cultured rice cells; [5]): 6.4 fold
FOLD INCREASE NT* AK060834 Calreticulin (NT cultured rice cells; [5]): 3.3 fold
FOLD INCREASE NT* AK063651 Harpin induced protein (NT cultured rice cells; [5]): 24.7 fold
FOLD INCREASE NT* AK066687 Shikimate kinase (NT cultured rice cells; [5]): 9.5 fold
FOLD INCREASE NT* AK066784 Small GTP-binding protein (rab5A) (NT cultured rice cells; [5]): 2.1 fold
FOLD INCREASE NT* AK067690 NAC Transcription factor (NT cultured rice cells; [5]): 2.4 fold
FOLD INCREASE NT* AK068115 Harpin induced protein (NT cultured rice cells; [5]): 43.1 fold
FOLD INCREASE NT* AK068993 PAL (NT cultured rice cells; [5]): 48.4 fold
FOLD INCREASE NT* AK069456 Peroxidase (NT cultured rice cells; [5]): 10.9 fold
FOLD INCREASE NT* AK071482 Caffeoyl-CoA 3-O-methyl-transferase (NT cultured rice cells; [5]): 11.3 fold
FOLD INCREASE NT* AK071598 Lipid transfer protein (NT cultured rice cells; [5]): 10.0 fold
FOLD INCREASE NT* AK072235 Cysteine proteinase (NT cultured rice cells; [5]): 4.3 fold
FOLD INCREASE NT* AK073072 CEBiP (NT cultured rice cells; [5]): 2.6 fold
FOLD INCREASE NT* AK100959 beta-Expansin(EXPB3) (NT cultured rice cells; [5]): 5.5 fold
FOLD INCREASE NT* AK101431 Patatin-like protein (NT cultured rice cells; [5]): 19.6 fold
FOLD INCREASE NT* AK102192 β-Galactosidase (NT cultured rice cells; [5]): 3.1 fold
FOLD INCREASE NT* AK103094 Laccase (NT cultured rice cells; [5]): 10.0 fold
FOLD INCREASE NT* AK105971 Pirin (NT cultured rice cells; [5]): 20.6 fold

From patent US20070275464A1, “Chitin Oligosaccharide Elicitor-Binding Proteins” (NATIONAL INSTITUTE OF AGROBIOLOGICAL SCIENCES, priority 2004, published 2007)
